Measurements reported in a flash point compilation (Sun et al. 2020).
Where a name gives a salt, the structure may show the parent alone.

Row | SMILES | flash point [°C]
1 | c1ccc2c(c1)CCCC2 [Tetrahydronaphthalene] | 71.00
2 | O=CCCl [Chloroacetaldehyde] | 88.00
3 | Oc1cccc(O)c1 [Resorcinol] | 127.00
4 | CCCC(C)=O [Methyl-n-Propyl ketone] | 7.00
5 | Oc1ccccc1Cl [o-Chlorophenol] | 64.00
6 | ClCC1CO1 (stereo not drawn) [Epichlorohydrin] | 41.00
7 | Cc1cccc(C)c1 [m-Xylene] | 29.00
8 | CCCCOC(=O)c1ccccc1C(=O)OCCCC [Dibutyl phthalate] | 157.00
9 | Cc1ccccc1N [o-Toluidine] | 85.00
10 | OCC(O)CO [Glycerol] | 160.00
11 | CCC(C)=O [Methyl ethyl ketone] | -7.00
12 | CCCCCC(=O)CC [Ethyl amyl ketone] | 57.00
13 | c1ccc(-c2ccccc2-c2ccccc2)cc1 [o-Terphenyl] | 163.00
14 | C=CC=CC [Piperylene] | -43.00
15 | Nc1ccc([N+](=O)[O-])cc1 [p-Nitroaniline] | 199.00
16 | C=CC(=C)C [Isoprene] | -54.00
17 | OCCCl [Ethylene chlorohydrin] | 60.00
18 | NNc1ccccc1 [Phenylhydrazine] | 89.00
19 | O=C1CCCCC1 [Cyclohexanone] | 44.00
20 | COC(=O)OC [Dimethyl carbonate] | 19.00
21 | C=C(C)C(=O)OCCCC [Butyl methacrylate] | 52.00

Row | SMILES | flash point [°C]
22 | CCCCOC(=O)C(O)C(O)C(=O)OCCCC (stereo not drawn) [Dibutyl tartrate] | 91.00
23 | CC(C)=CC(=O)C=C(C)C [Phorone] | 85.00
24 | O=P(Oc1ccccc1)(Oc1ccccc1)Oc1ccccc1 [Triphenyl phosphate] | 220.00
25 | CC(Cl)CCl (stereo not drawn) [1,2-Dichloropropane] | 16.00
26 | CN(C)c1ccccc1 [N,N-Dimethylaniline ] | 63.00
27 | COC(C)(C)OC [Dimethoxypropane] | -7.00
28 | CC(C)CCO[N+](=O)[O-] [iso-Amyl nitrate] | 52.00
29 | CN(C)C [Trimethyl amine] | -7.00
30 | Clc1cccc2ccccc12 [Chloronaphthalene] | 132.00
31 | C=C(C)C(=O)OC [Methyl methacrylate] | 10.00
32 | CC(=O)CC(C)C [Methyl isobutyl ketone] | 23.00
33 | NC=O [Formamide] | 155.00
34 | CCOC(=O)CC(C)=O [Ethyl acetoacetate] | 84.00
35 | Cc1ccco1 [2-Methyl furan] | -30.00
36 | c1ccncc1 [Pyridine] | 20.00
37 | CCCCC(CC)CO (stereo not drawn) [2-Ethyl hexanol] | 84.00
38 | S=C=S [Carbon disulphide] | -30.00
39 | Cc1ccccc1[N+](=O)[O-] [o-Nitrotoluene] | 106.00
40 | NCC(O)c1ccccc1 (stereo not drawn) [Phenylethanolamine] | 152.00
41 | OCCS [2-Mercaptoethanol] | 74.00
42 | Cc1cccc(N)c1 [m-Toluidine] | 86.00

Row | SMILES | flash point [°C]
43 | COC(=O)c1ccccc1C(=O)OC [Dimethyl phthalate] | 146.00
44 | Brc1ccccc1 [Bromobenzene] | 51.00
45 | O=C(Cl)C(Cl)Cl [Dichloroacetyl chloride] | 66.00
46 | COC(C)COC(C)CO (stereo not drawn) [Dipropylene glycol methyl ether] | 85.00
47 | CCCC(=O)Nc1ccccc1 [Ethyl acetanilide] | 52.00
48 | COC(=O)C(C)C [Methyl isobutyrate] | 13.00
49 | NCCNCCNCCNCCN [Tetraethylenepentamine] | 163.00
50 | O=C(O)c1ccccc1O [Salicylic acid] | 157.00
51 | C=CC(=O)O [Acrylic acid] | 52.00
52 | CC(C)(O)C#N [Acetone cyanohydrin] | 74.00
53 | C=CCl [Vinyl chloride] | -78.00
54 | NCc1ccccc1 [Benzylamine] | 63.00
55 | Cc1ccccn1 [2-Picoline] | 39.00
56 | c1ccc(-c2cccc(-c3ccccc3)c2)cc1 [m-Terphenyl] | 135.00
57 | CC(Cl)=CCCl [1,3-Dichloro-2-butene] | 27.00
58 | c1ccc(-c2ccccc2)cc1 [Biphenyl] | 113.00
59 | O=C1CCCC1 [Cyclopentanone] | 26.00
60 | c1ccc(P(c2ccccc2)c2ccccc2)cc1 [Triphenyl phosphine] | 180.00
61 | CC(O)CO (stereo not drawn) [1,2-Propanediol] | 99.00
62 | OCCN(CCO)CCO [Triethanolamine] | 179.00
63 | CC(=O)OCC(C)C [iso-Butyl acetate] | 18.00

Row | SMILES | flash point [°C]
64 | Cc1ccc(N)cc1 [p-Toluidine] | 87.00
65 | C1CCC(NC2CCCCC2)CC1 [Dicyclohexylamine] | 99.00
66 | Oc1ccc(Cl)cc1Cl [2,4-Dichlorophenol] | 114.00
67 | CC(C)(C)O [tert-Butyl alcohol] | 10.00
68 | Cc1ccccc1Br [o-Bromotoluene] | 79.00
69 | CCC[N+](=O)[O-] [1-Nitropropane] | 49.00
70 | CCCCC(C)OC(C)=O (stereo not drawn) [sec-Hexyl acetate] | 45.00
71 | C=CCC [1-Butene] | -80.00
72 | Cc1ccc(O)cc1 [p-Cresol] | 94.00
73 | CC(=O)CC(C)(C)O [Diacetone alcohol] | 64.00
74 | C1=COCCC1 [3,4-Dihydro-2H-pyran] | -18.00
75 | Clc1cc(Cl)c(Cl)cc1Cl [1,2,4,5-Tetrachlorobenzene] | 155.00
76 | Cc1ccncc1 [4-Picoline] | 57.00
77 | CC(C)CC(O)CC(C)C [Diisobutyl carbinol] | 74.00
78 | CC(Cl)(Cl)[N+](=O)[O-] [1,1-Dichloro-1-nitroethane] | 76.00
79 | CCCOC(C)=O [n-Propyl acetate] | 14.00
80 | Nc1cccc2ccccc12 [1-Naphthylamine] | 157.00
81 | COc1ccccc1C=O [o-Anisaldehyde] | 118.00
82 | CCCCOC(=O)C(=O)OCCCC [Dibutyl oxalate] | 104.00
83 | CCCC(C)OC(C)=O (stereo not drawn) [sec-Amyl acetate] | 32.00
84 | O=[N+]([O-])c1ccc(Cl)c([N+](=O)[O-])c1 [1-Chloro-2,4-dinitrobenzene] | 194.00

remark: another data set of the same source

Row | SMILES | flash point [°C]
85 | CCCCCCCC[Si](C)(C)Cl [n-Octyldimethylchlorosilane] | 97.00
86 | CCC[Si](O[SiH](C)C)(O[SiH](C)C)O[SiH](C)C [Propyltris(dimethylsiloxy)silane] | 50.00
87 | CCCO[Si](OCCC)(OCCC)OCCC [Tetra-n-propoxysilane] | 95.00
88 | CN(C)[SiH](N(C)C)N(C)C [Tris(dimethylamino)silane] | 25.00
89 | C[Si](C)(C)O[Si](C)(C)O[Si](C)(C)O[Si](C)(C)O[Si](C)(C)C [Dodecamethylpentasiloxane] | 79.00
90 | C[Si](C)(Cl)CBr [Bromomethyldimethylchlorosilane] | 41.00
91 | CO[Si](OC)(OC)OC [Tetramethoxysilane] | 21.00
92 | Cl[SiH](Cl)C1CCCC1 [Cyclopentyldichlorosilane] | 43.00
93 | CCO[Si](C)(C)C [Ethoxytrimethylsilane] | -27.00
94 | C[Si](C)(C)Br [Trimethyl bromosilane] | -3.00
95 | C=CC=CO[Si](C)(C)C [1-(Trimethylsiloxy)-1,3-butadiene] | 25.00
96 | C[Si](C)(C)C1C=CCC1 (stereo not drawn) [3-(Trimethylsilyl)cyclopentene] | 26.00
97 | C#CCO[Si](C)(C)C [Propargyloxytrimethylsilane] | 27.00
98 | CCO[Si](CCCS)(OCC)OCC [[3-(mercapto)propyl]triethoxysilane] | 87.78
99 | C[Si](Cl)(Cl)C(Cl)Cl [Dichloromethylmethyldichlorosilane] | 28.00
100 | C[Si](C)(Cl)c1ccccc1 [Phenyldimethylchlorosilane] | 61.00
101 | CC(C)[SiH](C(C)C)C(C)C [Triisopropylsilane] | 37.00
102 | CCCCCCCCCCCC[Si](Cl)(Cl)Cl [n-Dodecyltrichlorosilane] | 162.00
103 | C[Si](C)(C)C1C=CC=C1 [Cyclopentadienyltrimethylsilane] | 29.00
104 | C[Si](C)(C)[Si](C)(C)C [Hexamethyldisilane] | -1.00
105 | C[SiH](C)O[SiH](C)C [1,1,3,3-Tetramethyldisiloxane] | -22.00
106 | C[Si]1(C)CCCCO1 [1,1 -Dimethyl-1-sila-2-oxacyclohexane] | 14.00
107 | CC(C)(C)[Si](Cl)(Cl)Cl [t-Butyltrichlorosilane] | 21.00
108 | C=C[Si](OCC)(OCC)OCC [Vinyltriethoxysilane] | 34.00
109 | C[Si](C)(C)O[SiH](O[Si](C)(C)C)O[Si](C)(C)C [Tris(trimethylsiloxy)silane] | 50.00
110 | CCCCCCCCCC[Si](C)(Cl)Cl [n-Decylmethyldichlorosilane] | 120.00
111 | CCO[Si](CCC#N)(OCC)OCC [2-Cyanoethyltriethoxysilane] | 86.00
112 | C[Si](C)(C)N[Si](C)(C)C [Hexamethyldisilazane] | 8.00
113 | Cl[Si](Cl)(Cl)C1CCCCC1 [Cyclohexyltrichlorosilane] | 85.00
